From patent EP0099122A2, “Compositions comprising pepstatin and an histamine H2-receptor antagonist having an enhanced antiulcer activity” (Bristol-Myers Company, priority 1982, dated 1984)
Read-outs that look alike come from different tables or passages of the source.

How the values were obtained:
Gastric Fistula Rat = assay: Gastric antisecretory activity in the Gastric Fistula Rat; assay type: in vivo, Long Evans rats; conditions: sc; for ED50: Rattus norvegicus, read-out: ED50 sc
Description: Determination of Gastric Antisecretory Activity in the Gastric Fistula Rat
Male Long Evans rats weighing about 240-260 grams at the time of cannula implantation are used. […] The fistula components are designed and the operative procedure is carried out exactly as described in the above reference. Post operatively the animals are individually housed in solid bottom cages with sawdust and are allowed food and water ad libitum throughout the entire recovery period. Animals are not used for test purposes for at least 15 days after the operative procedure.
The animals are fasted but allowed water ad libitum for 20 hours before the testing procedure is to begin. Immediately prior to collection, the cannula is opened and the. stomach washed gently with 30-40 mL of warm saline or distilled water to remove any residual contents. The catheter is then screwed into the cannula in place of the plugging screw and the rat is placed in a clear plastic rectangular cage measuring 40 cm long, 15 cm wide and 13 cm high. The bottom of the cage has a slit approximately 1.5 cm wide and 25 cm long running down the center to accommodate the catheter which hangs through it. In this way the rat is not restricted and can move -freely about the cage during collection periods. The remainder of the assay is carried out as described by Ridley et al. [Research Comm. Chem. Path.
Gastric secretions collected during the first hour after washing the stomach are discarded as they may be contaminated. For oral evaluation, the catheter is then removed from the cannula and replaced with the plugging screw. Water (2 mL/kg) is administered orally via gastric intubation and the animal is returned to the cage for 45 minutes. After this time the plugging screw is removed and replaced with a catheter to which a small plastic vial has been attached to collect the gastric secretions. A two hour sample is collected (this represents the control secretion), the catheter removed and.replaced with the plugging screw. The test drug is now administered orally in a volume of 2 mL/kg via gastric intubation. Forty-five minutes later the plugging screw is again removed, replaced with the catheter attached to a small plastic vial and another 2 hour sample is collected. The secretions in the second sample are compared to those of the control sample in order to determine thee effects of the test drug.
When test compounds are to be evaluated parenterally, the animal is injected ip or sc with the test compound vehicle in a volume of 2 mL/kg immediately after discarding the initial 60 minute collection. A two hour sample is collected (control secretion) and the animals are injected either ip or sc with the test compound in a volume of 2 mL/kg. An additional two hour sample is collected and its secretions are compared to those of the control period to determing drug effects.
The samples are centrifuged in a graduated tube for volume determination. Titratable acidity is measured by titrating a one mL sample to pH 7.0 with 0.02N NaOH, using an Autoburet and an electrometric pH meter (Radiometer). Titratable acid output is calculated in microequivalents by multiplying the volume in milliliters by the acid concentration in milliequivalents per liter.
Results are expressed as percent inhibition relative to control readings. Dose response curves are constructed and ED50 values are calculated by regression analyses. At least three rats are used at each dosage level and a minimum of three dosage levels are utilized for determination of a dose response curve.

Heidenhain Pouch Dog = assay: Gastric antisecretory activity in the Heidenhain Pouch Dog; assay type: in vivo, dogs; conditions: 95% confidence limits in parentheses; for ED50: Canis lupus familiaris
Description: Determination of Gastric Antisecretory […] in the Heidenhain Pouch Dog Prior to surgery, hematology and blood chemistry profiles are obtained and an assessment made as to the general health of selected female dogs. Dogs are vaccinated with Tissue […]-Moore) and housed in general animal quarters for four weeks' observation so incipient diseases may become apparent. Dogs are fasted with water ad libitum 24 hours prior to surgery. […] Subsequent anesthesia is maintained with methoxy- flurane (Pitman-Moore). A mid-line linea alba incision from xiphoid to umbilicus provides good exposure and ease of closure. The stomach is pulled up into the operative fields the greater curvature stretched out at multiple points and clamps placed along the selected line of incision. The pouch is made from the corpus of the stomach so that true parietal cell juice is obtained. About 30% of the corpus volume is resected. The cannula is made of light-weight, biologically-inert material such as nylon or Delrin with dimensions and attachments after DeVito and […] fJ. Appl. Physiol., 14, 138 (1959)]. Post operatively, dogs are medicated with antibiotics and an analgesic. They are allowed 2-3 months for recovery. Experiments are carried out in the following way: […] The dogs are placed in a sling and a saphenous vein cannulated for drug administration. Histamine as the base (100 μg/kg/hr) and chlorpheniramine maleate (0.25 mg/kg/hr) are infused continuously (in a volume of 6 mL/hr) with a Harvard infusion pump. Ninety minutes' infusion are allowed for the dogs to reach a steady state of acid output. At this time the drug or normal saline (control) is administered concomitantly with the secretagogue in a volume of 0.5 mL/kg over a 30 second period. When oral studies are to be carried out, the drug is administered via gastric gavage in a volume of 5 mL/kg. Infusion of the secretagogue is continued and 15 minute samples of the gastric juice are taken for 4.5 hours. Each sample is measured to the nearest 0.5 mL and titratable acidity is determined by titrating a 1 mL sample to pH 7.0 with 0.2N NaOH, using an Autoburet and an electrometric pH meter '(Radiometer). Titratable acid output is calculated in microequivalents by multiplying the volume in milliliters by the acid concentration in milliequivalents per liter. Results are expressed as percent inhibition relative to control readings. Dose response curves are constructed and ED50 values are calculated by regression analyses. From 3 to 5 dogs are used at each dose level and a minimum of three dosage levels are utilized for determination of a dose response curve.

gastric acid secretion [1] = assay: Inhibition of gastric acid secretion relative to cimetidine, various animal studies; assay type: in vivo; conditions: inhibitors of gastric acid secretion, oral route
Description: Based on this potency difference, the oral dosage of the compounds of Examples 1 and 9 would be about 1/20 to 1/25 that of cimetidine, thus reducing the expected incidence of side effects. The usual oral dosage of cimetidine is 300 mg, given four times a day, while the usual dosage of the compounds of Examples 1 and 9 is about 12-15 mg, given four times a day. It was an object of this invention to further reduce the necessary dosage of the compounds of Formula I by the concomitant administration of a peptic activity- inhibitory amount of pepstatin. As will be shown below, such concomitant administration provides about a three-fold increase in potency compared with the administration of an equal amount of the compound of Formula I alone, thus permitting a further three-fold reduction in the dosage of the compound of Formula I.

gastric acid secretion [2] = assay: Inhibition of gastric acid secretion relative to cimetidine, oral route, dog; assay type: in vivo
Description: (§1) In the tests described below, gastric erosions produced in rats by the oral instillation of 1.0 mL of 0.75N HC1 were compared with those in rats which had been pretreated with the most preferred compound of Formula I (of Example 1) or with that compound and pepstatin. Comparison tests utilizing pretreatment with the newer commercial product, ranitidine, and with ranitidine and pepstatin, are also shown. Ranitidine is about 4 and 6 times as potent as cimetidine as an inhibitor of gastric acid secretion by the oral route in the rat and dog, respectively.

[3] = tested on: HCl-Induced Formation of Gastric Lesions; assay: HCl-induced gastric erosions in rats (modified method of Robert et al.); assay type: in vivo, Long Evans rats; conditions: compound alone versus compound plus pepstatin (20 mg/kg po)
Description: as §1
A modification of the method of Robert et al., [Gastroenterology, 77, 433-443 (1979)] was employed to produce gastric erosions. Adult male, Long Evans rats weighing 280-300 g (Blue Spruce Farms, Alton, New York) were used. The animals were individually caged and food and water were removed 24 and 18 hours, respectively, prior to testing. On the following day, the test compound was administered orally to the animals 30 minutes before 1.0 mL of 0.75N HC1 was instilled into the stomach by gavage. Animals treated with the combination of the test compound and pepstatin received the test compound 30 minutes before, and a fixed amount of pepstatin (20 mg/kg po) 10 minutes before, the hydrochloric acid was administered. […] One hour after receiving the HC1 solution, the animals were sacrificed with an intraperitoneal injection of 0.2 mL of T-61®, a euthanasia solution (National Laboratories Corp.).
The stomachs were removed from the animals, cut along the greater curvature, opened, rinsed with saline and pinned out flat in a standard position for macroscopic examination and scoring of erosions. The stomachs were photographed with a Polaroid® Close Up camera (Polaroid Corporation) and scoring was determined from the photographs. For scoring purposes, only those erosions with a minimum length of 1 mm were considered. The severity of gastric ulceration was defined for each animal as the sum of the maximum continuous lengths (in mm) of the erosions satisfying the above criteria. Percent inhibition of lesion formation was defined as
(mm erosion, vehicle control') - (mm erosion, test agent) 100. (mm erosion, vehicle control)
Data were analyzed using the t-test for unpaired data' and ED50 values were calculated from the dose response data using probit analysis [Finney, Probit Analysis, 3rd ed., University Press, Cambridge, England (1971)].
The compound of Example 1 and ranitidine (synthesized by the Medicinal Chemistry Research Department of Bristol Laboratories, Division of.Bristol-Myers Company) were dissolved in one equivalent of HC1 and the pH adjusted to 5.5 with NaOH. A suspension of pepstatin (Banyu Pharmaceutical Co. Ltd.) in water was made by homogenizing the compound with a few drops of Tween-80® (Atlas Chemical Industries). Each of these compounds were administered orally by gavage in a volume of 2 mL/kg.

gastric acid secretion [4] = assay: Inhibition of gastric acid secretion relative to cimetidine, oral route, rat; assay type: in vivo
Description: as §1

[5] = 95% confidence limits in parentheses

SMILES | ED50 (Gastric Fistula Rat; [5]) [µmol/kg] | Potency Ratio [cimetidine = 1.0] (Gastric Fistula Rat; [5]) | also measured
CN/C(=N/CCSCc1nc[nH]c1C)NC#N [Cimetidine, cimetidine, reference compound] | – | – | ED50 (Gastric Fistula Rat): 3.8 µmol/kg; ED50 (Heidenhain Pouch Dog; INTRAVENOUS): 2.18 µmol/kg; ED50 (Heidenhain Pouch Dog; ORAL): 3.29 µmol/kg
CN(C)Cc1ccc(CSCCNc2c(N)c(=O)c2=O)o1 [Example 2, 1-Amino-2-{2-[(5-dimethylaminomethyl-2-furyl)methylthio]ethyl-amino}cyclobutene-3,4-dione] | < 1 | >4 | Potency Ratio [cimetidine = 1.0] (Heidenhain Pouch Dog; INTRAVENOUS): ~20
CN(C)Cc1ccc(CSCCNc2c(N)c(=O)c2=O)s1 [Example 3, 1-Amino-2-{2-[(5-dimethylaminomethyl-2-thienyl)methylthio]ethyl-amino}cyclobutene-3,4-dione] | ~4 | ~1 | –
CN(C)Cc1cccc(OCCCNc2c(N)c(=O)c2=O)c1 [Example 9, 1-Amino-2-[3-(3-dimethylaminomethylphenoxy)propylamino]cyclobutene-3,4-dione] | 0.055 | 61 (20-204) | times more potent than cimetidine (gastric acid secretion [1]): 20-25; Potency Ratio [cimetidine = 1.0] (Heidenhain Pouch Dog; INTRAVENOUS): ~40; Potency Ratio [cimetidine = 1.0] (Heidenhain Pouch Dog; ORAL): ~20
Nc1c(NCCCOc2cccc(CN3CCCCCC3)c2)c(=O)c1=O [Example 10i, 1-amino-2-[3-(3-hexamethyleneiminomethylphenoxy)propylamino]-cyclobutene-3,4-dione] | 0.08 | 48 (21-97) | Potency Ratio [cimetidine = 1.0] (Heidenhain Pouch Dog; INTRAVENOUS): >40
Nc1c(NCCCOc2cccc(CN3CCCCCCC3)c2)c(=O)c1=O [Example 10j, 1-amino-2-[3-(3-heptamethyleneiminomethylphenoxy)propylamino]-cyclobutene-3,4-dione] | 0.044 | 88 (36-211) | –
Nc1c(NCCCOc2cccc(CN3CCCCCCCC3)c2)c(=O)c1=O [Example 10m, 1-amino-2-[3-(3-octamethyleneiminomethylphenoxy)propylamino]-cyclobutene-3,4-dione] | 0.7 | 5.4 (2.1-12) | –
CNc1c(NCCCOc2cccc(CN3CCCCC3)c2)c(=O)c1=O [Example 11, 1-Methylamino-2-[3-(3-piperidinomethylphenoxy)propylamino]cyclobutene-3,4-dione] | 0.067 | 50 (15-169) | –
O=c1c(NCCCOc2cccc(CN3CCCCC3)c2)c(NCc2cccnc2)c1=O [Example 12, 2-[3-(3-Piperidinomethylphenoxy)propylamino]-l-(3-pyridyl)methyl-aminocyclobutene-3,4-dione] | 0.094 | 44 (22-90) | –
C#CCNc1c(NCCCOc2cccc(CN3CCCCC3)c2)c(=O)c1=O [Example 14d] | 0.031 | 124 (62-243) | –
CNC(=C[N+](=O)[O-])NCCSCc1ccc(CN(C)C)o1 [Ranitidine, ranitidine] | – | – | times as potent as cimetidine as an inhibitor of gastric acid secretion (gastric acid secretion [2]): ~6; Potency Ratio [3]: 1.18; times as potent as cimetidine as an inhibitor of gastric acid secretion (gastric acid secretion [4]): about 4
